Type in all cases: functional
The subject of assay [1] is Radical scavenging activity. The assay can be described thus: Antioxidant activity assessed as DPPH free radical scavenging activity after 30 mins. A general note: Loss of DPPH colour is used to gauge radical scavenging.
In a further assay the test system is NCI-H460. As to the kind of experiment: Cytotoxicity against human NCI-H460 cells at 58 uM.
The subject of the next assay is SF-268. As to the kind of experiment: Cytotoxicity against human SF268 cells at 58 uM.

As usually defined, the IC50 is the midpoint of a concentration-inhibition curve. Regarding `CCOC(=O)[C@]1(O)C[C@@H](O)[C@H](OC(=O)/C=C/c2ccc(O)c(O)c2)[C@H](O)C1`, the IC50 in assay [1] came out at 234 µM.

As for `C[C@H]1OC(=O)[C@@H](O)[C@@H]1OC(=O)/C=C/c1ccc(O)c(O)c1`, the IC50 in assay [1] is 290 µM.

Usually inhibition stands for the percentage by which the read-out fell short of the control. Low values mean a response near the control, high ones a response far below the control. As for `COc1cc(-c2cc(=O)c3c(O)cc(O)cc3o2)cc(OC)c1OC`, the inhibition at 58 µM in the assay with NCI-H460 is 89%; in the assay with SF-268 it was 61%.

`O=C(/C=C/c1ccc(O)c(O)c1)OC[C@H](O)[C@H]1OC(=O)[C@H](O)[C@H]1O`: the IC50 in assay [1] stood at 91 µM.

Take VITAMIN E: the IC50 in assay [1] was determined as 350 µM.
